From patent US20110319611A1, “BENZOXAZINONE COMPOUND, METHOD FOR PRODUCING THE SAME, AND PHARMACEUTICAL COMPOSITION CONTAINING THE SAME” (Chang Gung University, priority 2010, published 2011)

Experiments:
Human neutrophils [1] = test: Release of human neutrophil elastase (NE) from FMLP/CB-activated neutrophils; type: cell-based; conditions: substrate MeO-Suc-Ala-Ala-Pro-Val-p-nitroanilide, 405 nm, mean ± S.E.M. (n = 3)
Method: (§1) Human neutrophils were prepared by the following procedure. […] The precipitate thus obtained was treated with a hypotonic solution, i.e., 0.2% NaCl, to lyse erythrocytes, followed by removal of the lysed erythrocytes using centrifugation at 200 g and 4° C. for 8 minutes so as to obtain the neutrophils. […] The neutrophil suspension was stored at 4° C. before use.
The neutrophils obtained in the section of “3. […] In a control group, 100% DMSO was used to substitute the compound solution. […] The reacted mixture was added with 1.5 μl of cytochalasin B (CB, 0.5 mg/ml) and was incubated for 3 minutes, followed by addition with 1.5 μl of formyl-L-methionyl-L-leucyl-L-phenylalanine (FMLP, 100 μM) and reaction for 10 minutes to activate neutrophils.

[2] = molecular target: T1, human neutrophil elastase (Homo sapiens, UniProt P08246); test: Inhibition of NE activity in supernatant of activated neutrophils; type: biochemical; conditions: supernatant of FMLP/CB-activated human neutrophils containing NE; mean ± S.E.M. (n = 3)
T1 construct: endogenous in cells; cell-free supernatant used
T1 sequence (P08246 30-267): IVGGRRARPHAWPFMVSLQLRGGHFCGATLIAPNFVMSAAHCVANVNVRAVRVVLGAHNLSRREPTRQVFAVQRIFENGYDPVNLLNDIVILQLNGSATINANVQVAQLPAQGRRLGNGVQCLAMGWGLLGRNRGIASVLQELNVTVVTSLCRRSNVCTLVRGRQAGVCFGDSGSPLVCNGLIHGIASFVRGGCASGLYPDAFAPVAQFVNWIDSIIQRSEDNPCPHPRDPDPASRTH
Source text: The neutrophils obtained in the section of “3. […] In a control group, 100% DMSO was used to substitute the compound solution. Moreover, in the positive control group, PMSF was used to substitute the compound solution.

human NE = molecular target: T2, human NE (Homo sapiens, UniProt P08246); test: Inhibition of commercially available pure neutrophil elastase; type: biochemical; conditions: 0.0075 U/ml human NE (Sigma), 96-well plate, 30 minutes, 405 nm
T2 construct: purchased Sigma, St. Louis, Mo; USA
T2 sequence (P08246 30-267): T1 sequence (P08246 30-267)
Source text: In a control group, 0.1% DMSO was used to substitute the compound solution. Moreover, in the positive control group, PMSF was used to substitute the compound solution.

Human neutrophils [3] = test: O2•− generation assay (SOD-inhibitable reduction of ferricytochrome c) in FMLP/CB-activated neutrophils; type: cell-based; conditions: Neutrophil, absorbance 550 nm, mean ± S.E.M. (n = 3)
Method: as §1
The O2^•− generation assay was based on the superoxide dismutase (SCD)-inhinitable reduction of ferricytochrome c. […] The neutrophils obtained in the section of “3. […] In a control group, 100% DMSO was used to substitute the compound solution. Moreover, in the positive control group, diphenyleneiodonium (DPI) was used to substitute the compound solution. The reacted mixture was added with 1.5 μl of cytochalasin B (CB, […]) and was incubated for […], followed by addition with 1.5 μl of formyl-L-methionyl-L-leucyl-L-phenylalanine (FMLP, 100 μM) and reaction for 10 minutes to activate neutrophils.

[4] = test system: lung injury caused by trauma-hemorrhagic shock; test: Water content assay of lung tissue after trauma-hemorrhagic shock; type: in vivo, rat
Method: (§2) Specifically, the effects of compound E7 on water content in lung tissues and myeloperoxidase (MPO) activity were measured.
(§3) In brief, male Sprague-Dawley (S.D.) rats having a body weight ranging from 275 to 325 g were obtained from National Laboratory Animal Center. The rats were randomly divided into four groups including experimental groups 1 and 2 and sham-operated groups 1 and 2. Each group included 8 rats. All rats were raised in an air-conditioned room with the following conditions: a light-dark cycle of 12-14 hours of illumination and 10-12 hours of darkness, 20-26° C., and relative humidity of 40-60%. The rats were free to have sufficient drinking water and feed and lived in the aforesaid room for one week to adapt to the environment. Before beginning the experiments, the rats were starved overnight while allowed to have sufficient drinking water ad libitum. The rats were anesthetized by isoflurane (Attane, Minrad, Bethlehem, Pa.) inhalation and were subjected to 5-cm midline laparotomy in the abdomen. […] The total amount of the blood volume of maximum bleed-out was recorded. […]
The left upper lobe was weighted and the weight was referred to as “wet weight”. The left upper lobe was then dried at 80° C. for 24 hours, and the weight, referred to as dry weight, thereof was measured. […]
The data were analyzed using the GraphPad Prism software (GraphPad Software, San Diego, Calif.). […]

[5] = test system: lung injury caused by trauma-hemorrhagic shock; test: Myeloperoxidase (MPO) activity in lung tissue after trauma-hemorrhagic shock; type: in vivo, rat
Method: as §2, §3
Activity of MPO was determined based on a method disclosed in H. P. Yu et al., Biochem. Pharmacol., 78: 983-992, 2009. […]

[6] = sham-operated rats, E7 (group 2) vs vehicle (group 1)

SMILES | IC50 (Human neutrophils [3]) [µM] | IC50 (Human neutrophils [1]; Neutrophil) [µM] | also measured
O=S(=O)(F)Cc1ccccc1 [PMSF, phenylmethylsulfonyl fluoride] | – | – | IC50 (Human neutrophils [1]): 110 ± 25 µM; IC50 [2]: 95.2 ± 19.2 µM; IC50 (human NE): 52.2 ± 1.07 µM
O=c1oc(-c2ccccc2Cl)nc2c(Cl)cccc12 [CE2, 8-chloro-2-(2′-chlorophenyl)-4H-benzo[d][1,3]oxazin-4-one] | 8.66 ± 1.44 | 1.89 ± 1.1 | –
O=c1oc(-c2ccccc2Br)nc2cccc(Cl)c12 [Compound E7, 5-chloro-2-(2′-bromophenyl)-4H-benzo[d][1,3]oxazin-4-one] | – | – | water content in lung tissue (wet weight/dry weight) [4, 6]: no significant difference; water content in lung tissue (wet weight/dry weight) ([4]; trauma-hemorrhage rats, E7 (experimental group 2) vs vehicle (experimental group 1), 24 hours after resuscitation, p<0.001): significantly reduced; MPO activity in lung tissue [5, 6]: no significant difference; MPO activity in lung tissue ([5]; trauma-hemorrhage rats, E7 (experimental group 2) vs vehicle (experimental group 1), 24 hours after resuscitation, p<0.01): significantly reduced
O=c1oc(-c2ccccc2Br)nc2c(Cl)cccc12 [CE3, 8-chloro-2-(2′-bromophenyl)-4H-benzo[d][1,3]oxazin-4-one] | 6.56 ± 3.09 | 1.69 ± 0.3 | –
CC(C)C[C@H](NC(=O)N[C@H](C(=O)N[C@@H](CCC(N)=O)C(=O)N[C@@H](C)C=O)[C@@H]1CCNC(=N)N1)C(=O)O [Elastatinal, elastatinal] | – | 56.5 ± 9.13 | –
Cc1ccccc1-c1nc2c(Cl)cccc2c(=O)o1 [CE4, 8-chloro-2-(2′-methylphenyl)-4H-benzo[d][1,3]oxazin-4-one] | 17.5 ± 2.69 | > 25 | –
COc1ccccc1-c1nc2c(Cl)cccc2c(=O)o1 [CE5, 8-chloro-2-(2′-methoxylphenyl)-4H-benzo[d][1,3]oxazin-4-one] | 10 ± 0.59 | 1.91 ± 0.14 | –
c1ccc2c(c1)[I+]c1ccccc1-2 [DPI, diphenyleneiodonium] | 0.97 ± 0.395 | – | –
O=c1oc(-c2ccccc2F)nc2c(Cl)cccc12 [CE1, 8-chloro-2-(2′-fluorophenyl)-4H-benzo[d][1,3]oxazin-4-one] | > 25 | 6.03 ± 0.65 | –
